Patent US20220017520A1, “MACROCYCLIC COMPOUND AS CDK INHIBITOR, PREPARATION METHOD THEREFOR, AND USE THEREOF IN MEDICINE” (Keythera (Suzhou) Pharmaceuticals Co. Ltd., priority 2018, published 2022)
Where two headings read alike, the source gives them in different places.

Legend:
[1] = amide bond, HATU, dichloromethane, 25.0 °C, 16.0 h
CDK4/D3 = CDK4/D3 (Homo sapiens, UniProt P11802); experiment: Inhibitory activity on CDK4 kinase by Caliper Mobility Shift method; format: biochemical; conditions: CDK4/D3, 28° C. for 5 hours
Experimental: Determination of Inhibitory Effect on CDK4/Cyclin D1
The determination of IC50 of CDK4/Cyclin D1 was conducted according to the following process. A 96-well filter plate (Millipore MADVN6550) was used. The total volume was 0.1 ml, containing buffer solution A (20 mM TRIS (tris[hydroxymethyl]aminomethane) (pH7.4), 50 mM NaCl, 1 mM dithiothreitol, 10 mM MgCl2), 2 μM ATP (containing […][32P]ATP), 20 ng CDK4, […] retinoblastoma protein and the test compound diluted in buffer solution A in an appropriate ratio. Buffer solution A alone without the test compound was used as the control without inhibitory effect. Buffer solution A containing excess EDTA was used to determine the background 32P level in the absence of enzymatic activity. All components except ATP were added to the wells, and the plate was shaked on a plate mixer for 2 minutes. [32P]ATP was added to initiate the reaction, and the plate was incubated at 25° C. for 15 minutes. 0.1 ml of 20% trichloroacetic acid (TCA) was added to stop the reaction. The plate was kept at 4° C. for at least 1 hour to allow the substrate to precipitate. The wells were washed five times with 0.2 ml of 10% TCA, and the binding of 32P was measured using a R plate counter (wallac Inc., Gaithersburg, Md.). IC50 of the test compound was determined by median effect method (Chou, T-C and Talalay P. Applications of the median effect principle for the assessment of low-dose risk of carcinogens and for the quantitation of synergism and antagonism of chemotherapeutic agents. In New Avenues in Developmental Cancer Chemotherapy (Eds. Harrap, K. T. and Connors, T. A.), pp. 37-64. Academic Press, New York, 1987).
(§1) Experimental method: Inhibitory activity on CDK4/6 kinase was determined by Caliper Mobility Shift method
1) Preparation of 1-fold CDK4 kinase buffer solution
800 μL of 1000 mM HEPES stock solution (pH 7.5) and 40 μL of 10% Triton X-100 stock solution were added to 39160 μL of ultra pure water, and the resulting solution was mixed well.
(§2) 25 mL of 4% Coating Reagent #3 (provided with the 12-sipper chip used in Caliper device) stock solution, 50 mL of 1000 mM HEPES stock solution (pH 7.5), 50 mL of 0.5 M EDTA stock solution and 0.25 mL of 30% Brij-35 stock solution were added to 374.75 mL of ultra pure water, and the resulting solution was mixed well.
1) Preparation of 2.5-fold CDK4/D3 kinase solution
7 μL of CDK4/D3 enzyme solution and 9 μL of 1M DTT stock solution were added to 1784 μL of 1-fold CDK4 kinase buffer solution, and the resulting solution was mixed well.
1) Preparation of 2.5-fold CDK4/D3 polypeptide solution
10 µL of 100 mM ATP stock solution, 45 μL of 1M MgCl2 stock solution and 45 μL of FAM-labelled polypeptide 8 were added to 1700 μL of 1-fold CDK4 kinase buffer solution, and the resulting solution was mixed well.
(§3) A 10 mM solution of the test compound in DMSO was diluted with DMSO to obtain a solution with a concentration of 50 μM, which was used as the stock solution. Said stock solution was subjected to 4-fold gradient dilution with DMSO to obtain solutions with a concentration of […], 3.12 μM, 0.78 μM, 0.19 μM, 0.048 μM, 12.2 nM, 3 nM, 0.76 nM and 0.19 nM, respectively. Each of the resulting solution was 10-fold diluted with 1-fold kinase buffer solution to obtain a 5-fold compound solution.
(§4) 1) 5 μL of the prepared 5-fold test compound solution and 10 μL of the prepared 2.5-fold kinase solution were added to the corresponding wells in a 384-well plate, and the plate was incubated at room temperature for 10 minutes.
(§5) 2) 10 μL of the prepared 2.5-fold polypeptide solution was added to the corresponding wells to start the enzymatic reaction, and the plate was incubated at 28° C. for 5 hours.
(§6) 25 μL of stop solution was added to each corresponding well to stop the reaction.
(§7) 8. The data was read by the Caliper device, the inhibition rate was calculated by the following formula, and curve fitting was carried out by GraphPad5.0 software to obtain the IC50 value.

MCF-7 cells = experiment: In vitro cell proliferation assay by BrdU method; format: cell-based; conditions: Homo sapiens, MCF7, 72 hours, 10% FBS
Experimental: In Vitro Cell Inhibitory Activity of the Compound of the Present Invention
Experimental method: Cell proliferation assay was carried out by BrdU method (BrdU cell proliferation assay kit, Cell Signaling Technology Co.)
Preparation of gradient dilution solution of test compound: the 10 mM stock solution of test compound was subjected to 4-fold serial gradient dilution with DMSO to obtain solutions with a concentration of 2.5 mM, […], respectively. 2 μL of DMSO-diluted compound was added to 198 μL of culture medium containing 10% FBS to obtain 10-fold test compound, wherein the maximum concentration of the test compound was 10 μM, the DMSO concentration was 1%, with a total of 7 concentration gradients.
MCF-7 culture medium: DMEM+10% FBS+0.01 mg/mL insulin
(1) Cells grown to 80% (in exponential growth phase) were digested with pancreatin, and were collected by centrifugation. MDA-MB-435S cells and U87MG cells were re-suspended in a FBS-free culture medium, counted and inoculated to a 96-well plate; MDA-MB-435S cells were inoculated at 3000 cells/well/81 μL, and U87MG cells were inoculated at 4000 cells/well/81 μL. MCF-7 cells were resuspended in a culture medium containing 1% FBS, counted and inoculated to a 96-well plate at 4000 cell/well/82 μL. The cells were incubated in a cell incubator at 37° C.
(2) After 24 hours of incubation, FBS (9 μL) was added to each well of the MDA-MB-435S cells and U87MG cells, and 8 μL of FBS was added to each well of the MCF-7 cells, so as to obtain a final FBS concentration of 10%.
(3) A different concentration of 10-fold test compound (10 μL) was added to each well to obtain a final concentration of test compound of 10 μM, 2.5 μM, 625 nM, 156 nM, 39 nM, 9.8 nM or 2.5 nM, respectively, with 3 repeated wells/group, and the cells were incubated at 37° C. for 72 hours.
(4) 10-fold BrdU solution (10 μL) was added to each well, and the cells were incubated in the incubator for 4 hours, followed by discarding the culture medium.
(5) Fixing/denaturation solution (10 μL) was added to each well, and the cells were incubated at room temperature for 30 minutes, followed by discarding the solution.
(6) 1-fold detection antibody solution (100 μL) was added to each well, the cells were incubated at room temperature for 1 hour, followed by discarding the solution, and the cells were washed with 1-fold washing solution (200 μL/well) three times.
(7) 1-fold HRP-labelled secondary antibody solution (100 μL) was added to each well, the cells were incubated at room temperature for 30 minutes, followed by discarding the solution, and the cells were washed with 1-fold washing solution (200 μL/well) three times.
(8) TMB substrate solution (100 μL) was added to each well, and the cells were incubated at room temperature for 30 minutes.
(9) Stop solution (100 μL) was added to each well, and the OD value at 450 nm was measured by a microplate reader.
1) Cell survival rate (%)=(ODtest compound−ODblank control)/(ODnormal cell control−ODblank control)×100%,
2) The data was processed by GraphPad Prism 5 software to obtain the curve and IC50 values.

CDK6/D3 = CDK6/D3 (Homo sapiens, UniProt Q00534); experiment: Inhibitory activity on CDK6 kinase by Caliper Mobility Shift method; format: biochemical; conditions: CDK6/D3, 28° C. for 5 hours
Experimental: as §1
2) Preparation of 1-fold CDK6 kinase buffer solution
50 mL of 1000 mM HEPES stock solution (pH 7.5) and 50 μL of 30% Brij-35 stock solution were added to 949.95 mL of ultra pure water, and the resulting solution was mixed well.
as §2
2) Preparation of 2.5-fold CDK6/D3 kinase solution 18 μL of CDK6/D3 enzyme solution and 14 μL of 1M DTT stock solution were added to 2768 μL of 1-fold CDK6 kinase buffer solution, and the resulting solution was mixed well.
2) Preparation of 2.5-fold CDK6/D3 polypeptide solution
23 μL of 100 mM ATP stock solution, 75 μL of 1M MgCl2 stock solution and 75 μL of FAM-labelled polypeptide 8 were added to 2827 μL of 1-fold CDK6 kinase buffer solution, and the resulting solution was mixed well.
as §3, §4, §5, §6, §7

neointima formation = conditions: rats; cited from earlier work

Sequence of CDK4/D3 (P11802 whole entry, species assumed): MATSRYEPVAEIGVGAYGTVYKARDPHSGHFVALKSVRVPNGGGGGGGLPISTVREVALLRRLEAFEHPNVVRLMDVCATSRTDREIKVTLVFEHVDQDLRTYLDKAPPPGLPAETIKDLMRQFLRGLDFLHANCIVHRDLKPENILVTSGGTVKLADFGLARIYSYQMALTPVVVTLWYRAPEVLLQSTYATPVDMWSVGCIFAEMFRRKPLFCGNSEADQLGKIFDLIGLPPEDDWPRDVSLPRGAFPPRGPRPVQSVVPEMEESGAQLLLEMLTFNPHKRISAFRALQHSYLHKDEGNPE
Sequence of CDK4/D3 (P30281 whole entry partner, species assumed): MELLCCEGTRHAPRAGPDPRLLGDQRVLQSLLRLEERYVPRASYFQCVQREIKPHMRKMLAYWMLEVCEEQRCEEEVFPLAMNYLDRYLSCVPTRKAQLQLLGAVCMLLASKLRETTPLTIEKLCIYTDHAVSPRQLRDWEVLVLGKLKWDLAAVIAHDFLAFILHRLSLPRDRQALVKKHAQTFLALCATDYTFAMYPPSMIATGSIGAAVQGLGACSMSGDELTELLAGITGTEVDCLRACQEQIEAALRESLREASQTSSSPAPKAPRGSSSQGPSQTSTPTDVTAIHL
Sequence of CDK6/D3 (Q00534 whole entry, species assumed): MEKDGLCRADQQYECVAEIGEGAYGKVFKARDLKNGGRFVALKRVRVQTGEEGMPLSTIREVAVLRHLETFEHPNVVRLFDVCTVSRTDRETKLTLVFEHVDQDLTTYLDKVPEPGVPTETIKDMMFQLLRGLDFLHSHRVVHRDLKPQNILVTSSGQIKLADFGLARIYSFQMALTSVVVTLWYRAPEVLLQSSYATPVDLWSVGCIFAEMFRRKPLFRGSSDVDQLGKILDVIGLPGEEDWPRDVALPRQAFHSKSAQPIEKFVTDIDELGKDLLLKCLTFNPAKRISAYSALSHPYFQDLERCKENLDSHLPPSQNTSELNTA
Sequence of CDK6/D3 (P30281 whole entry partner, species assumed): as the sequence (P30281 whole entry partner, species assumed) above

| Compound | IC50 (CDK4/D3) [nM] | IC50 (MCF-7 cells) [nM] | IC50 (CDK6/D3) [nM] | other results |
| --- | --- | --- | --- | --- |
| CCN1CCN(Cc2cnc3cc2NC(=O)CCn2c(C)nc4c(F)cc(cc42)-c2nc(ncc2F)N3)CC1 [Example 4, 4^5-((4-Ethylpiperazin-1-yl)methyl)-1^4,2^5-difluoro-1^2-methyl-1^1H-3,5-diaza-1(6,1)-benzo[d]imidazola-2(4,2)-pyrimidina-4(2,4)-pyridinacyclooctaphan-6-one] | 0.78 | 132 | 1.13 | ring closure, yield of all isomers ([1]; from CCN1CCN(Cc2cnc(Nc3ncc(F)c(-c4cc(F)c5nc(C)n(CCC(=O)O)c5c4)n3)cc2N)CC1, 18.0 mM): 7.3% |
| COc1ccc(CNc2nc(N(CCO)CCO)nc3c2ncn3C(C)C)cc1 [CVT-313] | – | – | – | inhibition of neointima formation (neointima formation): greater than 80% |
| CCN1CCN(Cc2cnc3cc2NC(=O)C[C@@H](C)n2c(C)nc4c(F)cc(cc42)-c2nc(ncc2F)N3)CC1 [Example 2, (R)-4^5-((4-Ethylpiperazin-1-yl)methyl)-1^4,2^5-difluoro-1^2,8-dimethyl-1^1H-3,5-diaza-1(6,1)-benzo[d]imidazola-2(4,2)-pyrimidina-4(2,4)-pyridinacyclooctaphan-6-one] | 0.49 | 42 | 0.35 | ring closure, yield of all isomers ([1]; from CCN1CCN(Cc2cnc(Nc3ncc(F)c(-c4cc(F)c5nc(C)n([C@H](C)CC(=O)O)c5c4)n3)cc2N)CC1, 13.8 mM): 7.4% |
| CCN1CCN(Cc2cnc3cc2NC(=O)C[C@H](C)n2c(C)nc4c(F)cc(cc42)-c2nc(ncc2F)N3)CC1 [Example 3, (S)-4^5-((4-Ethylpiperazin-1-yl)methyl)-1^4,2^5-difluoro-1^2,8-dimethyl-1^1H-3,5-diaza-1(6,1)-benzo[d]imidazola-2(4,2)-pyrimidina-4(2,4)-pyridinacyclooctaphan-6-one] | 15 | 4120 | 27 | – |
| CCN1CCN(Cc2cnc3cc2NC(=O)CC(C)n2c(C)nc4c(F)cc(cc42)-c2nc(ncc2F)N3)CC1 (stereo not shown) [Example 1, 4^5-((4-Ethylpiperazin-1-yl)methyl)-1^4,2^5-difluoro-1^2,8-dimethyl-1^1H-3,5-diaza-1(6,1)-benzo[d]imidazola-2(4,2)-pyrimidina-4(2,4)-pyridinacyclooctaphan-6-one] | 0.7 | 142 | 0.48 | ring closure, yield of all isomers ([1]; from CCN1CCN(Cc2cnc(Nc3ncc(F)c(-c4cc(F)c5nc(C)n(C(C)CC(=O)O)c5c4)n3)cc2N)CC1, 14.0 mM): 8.3% |

Now from value to molecule, other results behind:

| IC50 (CDK4/D3) [nM] | IC50 (MCF-7 cells) [nM] | IC50 (CDK6/D3) [nM] | Compound | other results |
| --- | --- | --- | --- | --- |
| 5 | – | 12 | CCN1CCN(Cc2cnc3cc2NC(=O)CC2(CC2)n2c(C)nc4c(F)cc(cc42)-c2nc(ncc2F)N3)CC1 [Example 9, 5′-((4-Ethylpiperazin-1-yl)methyl)-4′,5′-difluoro-2′-methylspiro[cyclopropane-1,8′-3,5-diaza-1(6,1)-benzo[d]imidazola-2(4,2)-pyrimidina-4(2,4)-pyridinacyclooctaphan]-6′-one] | – |
| 1.5 | – | 2.5 | CCN1CCN(Cc2cnc3cc2NC(=O)CC(C)n2ccc4ccc(cc42)-c2nc(ncc2F)N3)CC1 (stereo not shown) [Example 7, 4^5-((4-Ethylpiperazin-1-yl)methyl)-2^5-fluoro-8-methyl-1^1H-3,5-diaza-1(6,1)-indola-2(4,2)-pyrimidina-4(2,4)-pyridinacyclo-octaphan-6-one] | ring closure, yield of all isomers ([1]; from CCN1CCN(Cc2cnc(Nc3ncc(F)c(-c4ccc5ccn(C(C)CC(=O)O)c5c4)n3)cc2N)CC1, 14.0 mM): 33.3% |
| 8 | – | 10 | CCN1CCN(Cc2cnc3cc2NC(=O)CC(C)(C)n2c(C)nc4c(F)cc(cc42)-c2nc(ncc2F)N3)CC1 [Example 8, 4^5-((4-Ethylpiperazin-1-yl)methyl)-1^4,2^5-difluoro-1^2,8,8-trimethyl-1^1H-3,5-diaza-1(6,1)-benzo[d]imidazola-2(4,2)-pyrimidina-4(2,4)-pyridinacyclooctaphan-6-one] | – |
| 21 | – | 14 | CCN1CCN(Cc2cnc3cc2NCCC(C)n2c(C)nc4c(F)cc(cc42)-c2nc(ncc2F)N3)CC1 (stereo not shown) [Example 5, 4^5-((4-Ethylpiperazin-1-yl)methyl)-1^4,2^5-difluoro-1^2,8-dimethyl-1^1H-3,5-diaza-1(6,1)-benzo[d]imidazola-2(4,2)-pyrimidina-4(2,4)-pyridinacyclooctaphane] | – |
